From publication PMC6756013, “B591, a novel specific pan-PI3K inhibitor, preferentially targets cancer stem cells” (Oncogene, 2019)

What was measured:
[1] = test system: SUM-159PT, MCF7 and MDA-MB-231 mammospheres; assay: Mammosphere formation assay; assay type: cell-based, human; settings: treated 5 days
Method: Fig. 4 B591 inhibits CSCs and tumorigenesis. a B591 inhibited mammosphere-formation of SUM-159PT, MCF7, and MDA-MB-231 cells. Mammospheres were cultured as described in Materials and methods section. […] The mammospheres were subsequently passaged for another two generations and each generation of the mammospheres were cultured for 5 days without B591 and then counted under a phase-contrast microscopy. The relative mammosphere-formation ability is shown as percentage, and data represent mean ± SD from three independent experiments. c, d Representative flow cytometry plots show the effect of B591 on CD44^high/CD24^low (c) and ALDH^high (d) breast CSCs population from SUM-159PT cells. e Quantification of flow cytometry analysis of CD44^high/CD24^low and ALDH^high breast CSCs population from SUM-159PT cells. […] The live cells were collected and counted, the same amount of control cells and B591-treated cells were then incubated into the fourth left and right mammary fat pad of mice, respectively, according the indicated number for each group. Tumors were inspected 3 months later, and the tumor initiating frequency (TIF) was calculated with ELDA software. […]
In mammosphere formation assay, mammospheres were cultured in the presence of B591 for 5 days as described above and then were counted and imaged under a phase-contrast microscopy (Nikon, Japan).

[2] = test system: MDA-MB-231 and SUM-159PT monolayer and mammosphere cells; assay: Apoptosis of monolayer versus mammosphere cells (PE-Annexin V/7-AAD); assay type: cell-based, human; settings: 48 h
Method: Cells were treated with indicated agents for 48 h, and cells were harvested and processed for apoptosis assay using the PE-Annexin V/7-AAD Apoptosis Detection Kit. d Representative flow cytometry plots of apoptosis inducing activity of B591 (10 μM) and paclitaxel (10 nM) on monolayer and mammosphere MDA-MB-231 cells. e B591 preferentially targeted CD44^high/CD24^low cells. Cells were treated with B591 or paclitaxel for 2 days. Following a 4-day recovery period, cells were co-stained with CD44 and CD24 antibodies and subjected to FACS analysis. Representative flow cytometry plots show the effect of B591 on CD44^high/CD24^low population in MDA-MB-231 cells in vitro. f B591 decreased mammosphere forming efficiency. Primary MDA-MB-231 mammospheres were treated with B591 or paclitaxel for 48 h. Results of the secondary mammosphere-formation assay are shown. Scale bar represents 40 μm. g B591 decreased the expression of CSC markers in MDA-MB-231 cells. Cells were treated with B591 or paclitaxel for 2 days. […] They label a gated population in plots with axes CD44 and CD24. / Panel E: DMSO is the vehicle control. Its printed value is included all the same.
Supplementary Fig. S10. B591 preferentially targets CSCs. […] Following a 4-day recovery period, the expression of CSC markers was analyzed with western blot analysis.

[3] = test system: SUM-159PT orthotopic xenografts; assay: Tumor recurrence study in SUM-159PT xenografts; assay type: in vivo, NOD/SCID mice; settings: B591 10 mg/kg
Method: Fig. 6 B591 reduces breast tumor metastasis and recurrence. a Representative images show the effect of B591 (8 mg/kg) on lung metastasis of 4T1 cells, and data from six mice were plotted. b SUM-159PT cells were respectively treated with the indicated agents (8 nM Paclitaxel, 8 nM Paclitaxel plus 5 μM B591) for 24 h, the cells were then cultured for mammospheres. Representative images were shown, and data from two independent experiments were plotted. c–f SUM-159PT xenografts (n = 7) were treated with 4 mg/kg Paclitaxel, or 10 mg/kg B591, or both for 2 weeks, then ended the treatment and waited for tumor recurrence. Tumor volume (c) and body weight (d) were measured every 2 days after treatment, and tumors were photographed (e) and weighted (f) at the end of the experiment. ^*p < 0.05, ^**p < 0.01 versus indicated groups
In the tumor recurrence study, orthotopic xenografts were established with 5 × 10^6 SUM-159PT cells. When tumor volume reached about 50 mm^3, mice were randomly divided into four groups for treatment with vehicle, 4 mg/kg Paclitaxel, 10 mg/kg B591, and combination of 4 mg/kg Paclitaxel plus 10 mg/kg B591 (i.p.). Treatment was stopped after 2 weeks, and the tumors were allowed for recurrence for 3 weeks. Tumor volume and the body weight of mice were measured during the experiments. In the end of treatment, the mice were killed, and the tumor tissues were dissected and weighted.

**Q.** What does the source list for `Cc1cc2c(cc1C)[n+](Cc1ccccc1Br)cn2Cc1ccc2c(c1)CCO2.[Br-]` [B591, 3-(2-bromobenzyl)-1-((2,3-dihydrobenzofuran-5-yl)methyl) -5,6-dimethyl-1H-benzo[d]imidazol-3-ium bromide]?
**A.** Size and number of primary mammospheres [1]: reduced by B591 in a concentration-dependent manner; Apoptosis induction, mammosphere versus monolayer populations [2]: preferentially induced the apoptosis of mammosphere populations; Body weight ([3]; with or without paclitaxel 4 mg/kg): no significant body weight loss; Tumor growth and regrowth after end of treatment ([3]; paclitaxel 4 mg/kg, i.p., 2 weeks, then 3 weeks recurrence): significant inhibition of tumor growth and notably delayed the relapse of breast cancer following cessation of paclitaxel treatment
